Tests used:
[1] = target: T1, AAK1 (Homo sapiens, UniProt Q2M2I8); assay: P81 filter plate assay; format: biochemical; details: full-length human AAK1, Mu2 substrate, 33P-ATP
T1 construct: NP_055726.2
Procedure, shortened: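 Full-length human AAK1 (0.2 nM, 2×) was pre-incubated 10 min at RT with compounds (top concentration 96 μM in the dilution plate), then reacted 1 h at RT with full-length human Mu2 (0.2 μM, 2×), cold ATP (2 μM, 2×) and ³³P-ATP. Reactions were stopped with phosphoric acid and captured on P81 filters for scintillation counting.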

[2] = target: T1, AAK1; assay: HEK281 cell-based assay (CBA); details: HEK293F cells transfected with full length human AAK1 and AP2M1; phospho-mu2 Western blot; 3 hours incubation
Method: HEK293F cells were cultured in media containing DMEM (Gibco, cat. #11965), 10% FBS (SAFC Biosciences, cat. #12103C), 1× GPS (glutamine, penicillin and streptomycin). On day one, cells were plated on a 10 cm dish so that they are ˜80% confluent at time of transfection. Roughly 12 million cells were in a 10 cm dish at time of transfection. On day two, each dish was transfected with 48 ug DNA and 144 ul Lipofectamine 2000 (Invitrogen, cat. #11668-019). The DNA was comprised of a mixture (per 10 cm dish) containing 3 ug AAK1/HA/pIRES (full length human, NCBI accession no. NP_055726.2), 45 μg Flag/AP2MI/pcDNA (full length human), and 1.5 ml OPTI-MEM. The Lipofectamine 2000 is made up of a mixture (per 10 cm dish) containing 144 μl Lipofectamine 2000 and 1.5 ml OPTI-MEM. Each mixture was transferred to individual 15 ml tubes and incubated at RT for 5 minutes, and then the two mixes were combined and incubated at RT for 20 minutes.
Growth media was then aspirated from each 10 cm plate and replaced with 10 ml of DMEM+10% FBS (no GPS). Finally, 3 ml DNA/Lipofectamine mix was added to each 10 cm dish and mix gently followed by incubate of plate overnight at 37° C. and 5% CO2.
On day three, compounds were diluted in 100% DMSO at 1000× final concentration, followed by 3-fold serial dilutions for a total of 5 concentrations tested. Four compounds were tested per 10 cm dish. One ul of each compound dilution was then pipetted into a deep-well, 96-well plate, followed by addition of 500 μl DMEM+0.5% FBS into each well for a 2× final concentration of each compound. Cells were resuspended in a 10 cm dish by simple pipetting (HEK293 cells come off the plate that easy at this point) and then transferred to a 50 ml conical tube and pelleted by centrifugation at 1000 rpm for 5 min. Cell pellets were then resuspended in 2.75 ml DMEM+0.5% FBS per 10 cm dish and 100 μl of cell suspension transferred into each well of 96-well TC plate. Finally, 100 μl of 2× compound diluted in DMEM+0.5% FBS was then added into wells containing cell suspension for a 1× final concentration. Plates were then incubated at 37° C. and 5% CO2 for 3 hours followed by transferring of cell suspensions from each well into 12-tube PCR strips. The PCR strips were spun in a tip rack at 1000 rpm for 5 minutes to pellet cells and media was then removed by pipetting without disturbing the cell pellet.
To prepare for Western Blot analysis, cell pellets were resuspend in 40 ul 1× LDS-PAGE sample buffer (Invitrogen, cat.# NP0008)+2× Halt phophatase and protease inhibitor cocktail (Thermo Scientific, cat. #1861284), followed by sonicating each with microtip sonicator set at 5 for 8-10 seconds. Five ul of 10× NuPage Sample Reducing Agent (with 50 mM DTT) was to each sample followed by heat denaturing at 70 C for 10 min on PCR machine. A total of 10 μl per sample was loaded into each lane of a 4-20% Tris-Glycine Criterion 26-well gel (Biorad, cat. #345-0034) for the phospho-mu2 blot and 10 μl per lane in a 4-12% Bis-Tris (+MES buffer) NuPAGE 26-well gel (Invitrogen, cat.# WG1403BX10) for the mu2 blot. For controls, 2 ng of phospho-mu2 or 20 ng mu2/Flag proteins were loaded in the last well of each gel. After SDS-PAGE, samples on each gel were transferred to PVDF membrane using an iBlot and membranes were blocked for one hour in TBST+5% milk, followed by wash 3× for 5-10 min with TBST. Criterion gels were probed with rabbit anti-phospho-mu2 (1:5000; a rabbit polyclonal antibody produced by New England Peptide and affinity purified at Lexicon) in TBST+5% BSA, whereas, NuPAGE gels were probed with mouse anti-Flag (1:500; Sigma, cat.# F1804) in TBST+5% milk, and these primary antibodies were incubated overnight at 4° C. on a rocker.

T1 sequence (Q2M2I8 1-863 isoform Q2M2I8-2): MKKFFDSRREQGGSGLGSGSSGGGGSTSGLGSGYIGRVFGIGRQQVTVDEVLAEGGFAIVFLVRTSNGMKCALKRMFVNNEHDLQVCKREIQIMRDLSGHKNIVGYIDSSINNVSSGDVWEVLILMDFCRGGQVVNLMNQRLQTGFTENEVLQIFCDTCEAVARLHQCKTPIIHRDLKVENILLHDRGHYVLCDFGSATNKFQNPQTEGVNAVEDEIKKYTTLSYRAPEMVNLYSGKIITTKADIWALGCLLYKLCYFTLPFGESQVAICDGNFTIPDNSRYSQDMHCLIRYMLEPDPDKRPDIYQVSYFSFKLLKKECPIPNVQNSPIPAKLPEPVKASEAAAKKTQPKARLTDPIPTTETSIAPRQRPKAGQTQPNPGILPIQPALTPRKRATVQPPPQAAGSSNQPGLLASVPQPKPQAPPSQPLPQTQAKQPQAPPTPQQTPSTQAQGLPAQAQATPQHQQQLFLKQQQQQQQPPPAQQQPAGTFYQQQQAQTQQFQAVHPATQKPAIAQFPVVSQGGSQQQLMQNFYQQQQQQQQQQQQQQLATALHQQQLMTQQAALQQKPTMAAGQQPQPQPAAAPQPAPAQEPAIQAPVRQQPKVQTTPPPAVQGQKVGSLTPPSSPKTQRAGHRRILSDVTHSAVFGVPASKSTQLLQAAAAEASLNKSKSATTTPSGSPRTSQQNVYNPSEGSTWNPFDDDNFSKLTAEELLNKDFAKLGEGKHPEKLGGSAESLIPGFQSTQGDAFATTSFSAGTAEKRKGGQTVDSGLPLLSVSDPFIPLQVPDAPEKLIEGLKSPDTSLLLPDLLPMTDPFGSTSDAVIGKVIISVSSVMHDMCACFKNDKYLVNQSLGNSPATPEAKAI

IC50 [1]	IC50 [2]	Structure (SMILES)
≤ 0.01 µM	≤ 0.1 µM	COc1ncccc1-c1cnn2ccc(N3CCN(C(=O)N4CCCCC4)CC3)nc12 [(4-(3-(2-methoxypyridin-3-yl)pyrazolo[1,5-a]pyrimidin-5-yl)piperazin-1-yl)(piperidin-1-yl)methanone]
≤ 0.01 µM	≤ 1 µM	COC[C@@H](C)OC(=O)N1CCN(c2ccn3ncc(-c4cccnc4OC)c3n2)CC1 [(R)-1-methoxypropan-2-yl 4-(3-(2-methoxypyridin-3-yl)pyrazolo[1,5-a]pyrimidin-5-yl)piperazine-1-carboxylate]
≤ 0.01 µM	≤ 0.1 µM	COc1nc(C)ccc1-c1cnn2ccc(N3CCN(C(=O)O[C@@H]4CCOC4)CC3)nc12 [(R)-tetrahydrofuran-3-yl 4-(3-(2-methoxy-6-methylpyridin-3-yl)pyrazolo[1,5-a]pyrimidin-5-yl)piperazine-1-carboxylate]
≤ 0.01 µM	≤ 0.01 µM	COc1ncccc1-c1cnn2ccc(N3CCN(C(=O)O[C@@H]4CCOC4)CC3)nc12 [(R)-tetrahydrofuran-3-yl 4-(3-(2-methoxypyridin-3-yl)pyrazolo[1,5-a]pyrimidin-5-yl)piperazine-1-carboxylate]
≤ 0.01 µM	≤ 0.01 µM	COc1ccc(F)cc1-c1cnn2ccc(N3CCN(C(=O)O[C@@H]4CCOC4)CC3)nc12 [(R)-tetrahydrofuran-3-yl 4-(3-(5-fluoro-2-methoxyphenyl)pyrazolo[1,5-a]pyrimidin-5-yl)piperazine-1-carboxylate]
≤ 0.01 µM	≤ 0.01 µM	COc1ncc(F)cc1-c1cnn2ccc(N3CCN(C(=O)O[C@@H]4CCOC4)CC3)nc12 [(R)-tetrahydrofuran-3-yl 4-(3-(5-fluoro-2-methoxypyridin-3-yl)pyrazolo[1,5-a]pyrimidin-5-yl)piperazine-1-carboxylate]
≤ 0.01 µM	≤ 0.1 µM	CN[C@H](C(=O)N1CCN(c2ccn3ncc(-c4cccnc4OC)c3n2)CC1)C(C)(C)C [(S)-1-(4-(3-(2-methoxypyridin-3-yl)pyrazolo[1,5-a]pyrimidin-5-yl)piperazin-1-yl)-3,3-dimethyl-2-(methylamino)butan-1-one]
≤ 0.01 µM	≤ 0.01 µM	CN[C@@H](CC(C)C)C(=O)N1CCN(c2ccn3ncc(-c4cccnc4OC)c3n2)CC1 [(S)-1-(4-(3-(2-methoxypyridin-3-yl)pyrazolo[1,5-a]pyrimidin-5-yl)piperazin-1-yl)-4-methyl-2-(methylamino)pentan-1-one]
≤ 0.01 µM	≤ 0.01 µM	COC[C@H](C)OC(=O)N1CCN(c2ccn3ncc(-c4cccnc4OC)c3n2)CC1 [(S)-1-methoxypropan-2-yl 4-(3-(2-methoxypyridin-3-yl)pyrazolo[1,5-a]pyrimidin-5-yl)piperazine-1-carboxylate]
≤ 0.01 µM	≤ 0.01 µM	CC(C)[C@H](N)C(=O)N1CCN(c2ccn3ncc(-c4cc(F)ccc4F)c3n2)CC1 [(S)-2-amino-1-(4-(3-(2,5-difluorophenyl)pyrazolo[1,5-a]pyrimidin-5-yl)piperazin-1-yl)-3-methylbutan-1-one]
≤ 0.01 µM	≤ 0.1 µM	Cc1ccc(-c2cnn3ccc(N4CCN(C(=O)[C@@H](N)C(C)C)CC4)nc23)c(F)c1 [(S)-2-amino-1-(4-(3-(2-fluoro-4-methylphenyl)pyrazolo[1,5-a]pyrimidin-5-yl)piperazin-1-yl)-3-methylbutan-1-one]
≤ 0.01 µM	≤ 0.01 µM	CC(C)[C@H](N)C(=O)N1CCN(c2ccn3ncc(-c4ccccc4F)c3n2)CC1 [(S)-2-amino-1-(4-(3-(2-fluorophenyl)pyrazolo[1,5-a]pyrimidin-5-yl)piperazin-1-yl)-3-methylbutan-1-one]
≤ 0.01 µM	≤ 0.01 µM	COc1ccccc1-c1cnn2ccc(N3CCN(C(=O)[C@@H](N)C(C)(C)C)CC3)nc12 [(S)-2-amino-1-(4-(3-(2-methoxyphenyl)pyrazolo[1,5-a]pyrimidin-5-yl)piperazin-1-yl)-3,3-dimethylbutan-1-one]

The remaining lines, values behind:

Structure (SMILES)	IC50 [1]	IC50 [2]
COCC(C)(C)OC(=O)N1CCN(c2ccn3ncc(-c4cccnc4OC)c3n2)CC1 [1-methoxy-2-methylpropan-2-yl 4-(3-(2-methoxypyridin-3-yl)pyrazolo[1,5-a]pyrimidin-5-yl)piperazine-1-carboxylate]	≤ 0.01 µM	≤ 1 µM
COCC(C)OC(=O)N1CCN(c2ccn3ncc(-c4cccnc4OC)c3n2)CC1 (stereo not shown) [1-methoxypropan-2-yl 4-(3-(2-methoxypyridin-3-yl)pyrazolo[1,5-a]pyrimidin-5-yl)piperazine-1-carboxylate]	≤ 0.01 µM	≤ 0.01 µM
COc1ncccc1-c1cnn2ccc(N3CCN(C(=O)OCC(F)(F)F)CC3)nc12 [2,2,2-trifluoroethyl 4-(3-(2-methoxypyridin-3-yl)pyrazolo[1,5-a]pyrimidin-5-yl)piperazine-1-carboxylate]	≤ 0.01 µM	≤ 0.01 µM
COCCOC(=O)N1CCN(c2ccn3ncc(-c4ccc(C)nc4OC)c3n2)CC1 [2-methoxyethyl 4-(3-(2-methoxy-6-methylpyridin-3-yl)pyrazolo[1,5-a]pyrimidin-5-yl)piperazine-1-carboxylate]	≤ 0.01 µM	≤ 0.1 µM
[2H]C1([2H])N(C(=O)OCCOC)C([2H])([2H])C([2H])([2H])N(c2ccn3ncc(-c4cccnc4OC)c3n2)C1([2H])[2H] [2-methoxyethyl 4-(3-(2-methoxypyridin-3-yl)pyrazolo[1,5-a]pyrimidin-5-yl)-d8-piperazine-1-carboxylate]	≤ 0.01 µM	≤ 0.1 µM
COCCOC(=O)N1CCN(c2ccn3ncc(-c4cc(F)ccc4OC)c3n2)CC1 [2-methoxyethyl 4-(3-(5-fluoro-2-methoxyphenyl)pyrazolo[1,5-a]pyrimidin-5-yl)piperazine-1-carboxylate]	≤ 0.01 µM	≤ 0.01 µM
COCCOC(=O)N1CCN(c2ccn3ncc(-c4cc(F)cnc4OC)c3n2)CC1 [2-methoxyethyl 4-(3-(5-fluoro-2-methoxypyridin-3-yl)pyrazolo[1,5-a]pyrimidin-5-yl)piperazine-1-carboxylate]	≤ 0.01 µM	≤ 0.1 µM
COc1ncccc1-c1cnn2ccc(N3CCN(C(=O)C4(N)CCCC4)CC3)nc12 [(1-aminocyclopentyl)(4-(3-(2-methoxypyridin-3-yl)pyrazolo[1,5-a]pyrimidin-5-yl)piperazin-1-yl)methanone]	≤ 0.01 µM	≤ 0.01 µM
COc1ncccc1-c1cnn2ccc(N3CCN(C(=O)[C@@H](N)[C@@H](C)OC)CC3)nc12 [(2S,3R)-2-amino-3-methoxy-1-(4-(3-(2-methoxypyridin-3-yl)pyrazolo[1,5-a]pyrimidin-5-yl)piperazin-1-yl)butan-1-one]	≤ 0.01 µM	≤ 0.1 µM
COc1ncccc1-c1cnn2ccc(N3CCN(C(=O)C4(N)CCOC4)CC3)nc12 (stereo not shown) [(3-aminotetrahydrofuran-3-yl)(4-(3-(2-methoxypyridin-3-yl)pyrazolo[1,5-a]pyrimidin-5-yl)piperazin-1-yl)methanone]	≤ 0.01 µM	≤ 0.1 µM

Source: patent US9403832B2, “Pyrazolo[1,5-a]pyrimidine-based compounds, compositions comprising them, and methods of their use” (Lexicon Pharmaceuticals, Inc., priority 2012, dated 2016)
